The values below come from patent US8735406B2, “8-oxodihydropurine derivative” (Dainippon Sumitomo Pharma Co., Ltd., priority 2009, dated 2014).

In this experiment the target is T1, FAAH (Rattus norvegicus, UniProt P97612).
T1 construct: Preparation of Rat Brain Membranes Preparations (FAAH Enzyme Solution); from tissue; host or cells: rat cerebrum (brain membrane preparation)
T1 sequence (P97612 1-579): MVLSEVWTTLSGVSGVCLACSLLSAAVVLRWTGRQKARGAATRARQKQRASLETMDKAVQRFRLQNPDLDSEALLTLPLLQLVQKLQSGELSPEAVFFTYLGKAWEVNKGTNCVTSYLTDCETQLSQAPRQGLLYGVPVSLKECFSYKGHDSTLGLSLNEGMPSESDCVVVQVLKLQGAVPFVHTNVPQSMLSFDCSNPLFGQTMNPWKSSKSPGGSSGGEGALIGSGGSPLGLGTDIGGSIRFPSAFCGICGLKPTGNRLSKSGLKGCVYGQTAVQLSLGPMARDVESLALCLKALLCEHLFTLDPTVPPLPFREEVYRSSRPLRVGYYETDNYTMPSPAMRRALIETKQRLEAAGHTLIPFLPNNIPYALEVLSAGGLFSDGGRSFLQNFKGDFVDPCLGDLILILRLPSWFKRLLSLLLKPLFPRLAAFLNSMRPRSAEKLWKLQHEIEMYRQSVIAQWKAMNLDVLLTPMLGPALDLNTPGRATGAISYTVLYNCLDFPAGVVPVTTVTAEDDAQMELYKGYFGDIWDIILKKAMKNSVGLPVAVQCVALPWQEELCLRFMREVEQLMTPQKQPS
The experiment is described as follows: Determination of FAAH inhibitory activity in rat (rat brain membrane preparations, [3H]-anandamide hydrolysis). In kind it is biochemical. As to conditions: rat brain membrane preparations; for inhibition at 0.1 µM: read-out: FAAH Inhibition, Inhibition Rate at 100 nM; for IC50: test substance 0.1 nM to 1 μM, read-out: FAAH Inhibition IC50. In short, it runs like this: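 Rat cerebrum membranes (100 μg/mL protein) preincubated 10 min at 37 °C with compound (1% DMSO) in pH 7.6 Tris buffer with 1.5% BSA. Substrate 2 nM [3H]-anandamide plus 2 μM anandamide added for 10 min at 37 °C. [3H]-ethanolamine in the aqueous phase after chloroform/methanol extraction was scintillation counted; IC50 over 0.1 nM–1 μM.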

The structures appear in SMILES notation.

For `CN(C)C(=O)n1c(=O)n(C)c2cnc(CCc3ccc(F)c(F)c3)nc21` [compound 496], the half-maximal inhibitory concentration (IC50) came to 15 nM. Also, the inhibition at 0.1 µM (100 nM test substance) worked out at 86%.

As to `Cc1cccc(CCc2ncc3c(n2)n(C(=O)N(C)C)c(=O)n3C)c1` [compound 498], the IC50 turned out to be 24 nM. Further, where the note is “100 nM test substance”, the inhibition at 0.1 µM worked out at 93%.

`CN(C)C(=O)n1c(=O)n(C)c2cnc(CCc3ccccc3F)nc21` [compound 499]: the concentration for half-maximal inhibition (IC50) is 28 nM. For the same compound, the inhibition at 0.1 µM (100 nM test substance) stood at 91%.

Consider `CCCc1ccc(CCc2ncc3c(n2)n(C(=O)N(C)C)c(=O)n3C)cc1` [compound 500], for which the IC50 is 10 nM. Moreover, the inhibition at 0.1 µM (100 nM test substance) came to 104%.

For the compound `CCCOc1ccc(CCc2ncc3c(n2)n(C(=O)N(C)C)c(=O)n3C)cc1` [compound 501], the IC50 amounted to 10 nM. In addition, the inhibition at 0.1 µM (100 nM test substance) worked out at 103%.

For the compound `CC(C)c1ccc(CCc2ncc3c(n2)n(C(=O)N(C)C)c(=O)n3C)cc1` [compound 502], the IC50 is 10 nM. For the setting “100 nM test substance”, the inhibition at 0.1 µM was determined as 104%.

As for `CCc1ccc(CCc2ncc3c(n2)n(C(=O)N(C)C)c(=O)n3C)cc1` [compound 503], the IC50 turned out to be 10 nM. Moreover, the inhibition at 0.1 µM (100 nM test substance) came out at 101%.

Take `CN(C)C(=O)n1c(=O)n(C)c2cnc(CCc3cc(F)c(F)c(F)c3)nc21` [compound 504]: the IC50 came out at 6 nM. The inhibition at 0.1 µM (100 nM test substance) is 100%.

On to `Cc1ccc(C)c(CCc2ncc3c(n2)n(C(=O)N(C)C)c(=O)n3C)c1` [compound 507], for which the IC50 is 24 nM. Besides, the inhibition at 0.1 µM (100 nM test substance) was found to be 95%.

In the case of `CCCCc1ccc(CCc2ncc3c(n2)n(C(=O)N(C)C)c(=O)n3C)cc1` [compound 508], the IC50 turned out to be 5 nM. Moreover, the inhibition at 0.1 µM (100 nM test substance) turned out to be 100%.

Take `Cc1cc(CCc2ncc3c(n2)n(C(=O)N(C)C)c(=O)n3C)ccc1F` [compound 509]: the IC50 came out at 10 nM. Moreover, where the note is “100 nM test substance”, the inhibition at 0.1 µM came out at 99%.

On to `Cc1ccc(CCc2ncc3c(n2)n(C(=O)N(C)C)c(=O)n3C)cc1C` [compound 510], for which the IC50 was determined as 11 nM. The inhibition at 0.1 µM (100 nM test substance) turned out to be 102%.

In the case of `Cc1cc(C)c(CCc2ncc3c(n2)n(C(=O)N(C)C)c(=O)n3C)c(C)c1` [compound 511], the IC50 is 13 nM. The inhibition at 0.1 µM (100 nM test substance) was 95%.

In the case of `Cc1cc(C)cc(CCc2ncc3c(n2)n(C(=O)N(C)C)c(=O)n3C)c1` [compound 514], the IC50 was determined as 10 nM. In addition, the inhibition at 0.1 µM (100 nM test substance) came to 102%.

Take `CCc1ccccc1CCc1ncc2c(n1)n(C(=O)N(C)C)c(=O)n2C` [compound 515]: the IC50 came out at 10 nM. Besides, the inhibition at 0.1 µM (100 nM test substance) is 100%.

Consider `CCc1cccc(CCc2ncc3c(n2)n(C(=O)N(C)C)c(=O)n3C)c1` [compound 516], for which the IC50 is 10 nM. Under “100 nM test substance”, the inhibition at 0.1 µM worked out at 100%.

On to `CN(C)C(=O)n1c(=O)n(C)c2cnc(CCc3cccc(C4CC4)c3)nc21` [compound 517], for which the IC50 turned out to be 10 nM. Moreover, where the note is “100 nM test substance”, the inhibition at 0.1 µM came out at 98%.

For `CCCc1cccc(CCc2ncc3c(n2)n(C(=O)N(C)C)c(=O)n3C)c1` [compound 518], the IC50 came to 9 nM. Also, the inhibition at 0.1 µM (100 nM test substance) amounted to 107%.

Consider `CN(C)C(=O)n1c(=O)n(C)c2cnc(CCc3cccc(OCC4CC4)c3)nc21` [compound 519], for which the IC50 was found to be 6 nM. For the same compound, the inhibition at 0.1 µM (100 nM test substance) is 84%.

`CN(C)C(=O)n1c(=O)n(C)c2cnc(CCc3cccc(Cl)c3)nc21` [compound 520]: the IC50 was 4 nM. Further, the inhibition at 0.1 µM (100 nM test substance) is 96%.

For the compound `CN(C)C(=O)n1c(=O)n(C)c2cnc(CCc3ccc(C4CC4)cc3)nc21` [compound 521], the IC50 worked out at 13 nM. In addition, the inhibition at 0.1 µM (100 nM test substance) amounted to 85%.

Turning to `CN(C)C(=O)n1c(=O)n(C)c2cnc(CCc3ccc(C4CC4)c(F)c3)nc21` [compound 524], the IC50 was 94 nM. For the same compound, the inhibition at 0.1 µM (100 nM test substance) stood at 80%.

Turning to `CN(C)C(=O)n1c(=O)n(C)c2cnc(CCc3ccc(F)c(C4CC4)c3)nc21` [compound 527], the IC50 is 28 nM. Moreover, the inhibition at 0.1 µM (100 nM test substance) amounted to 95%.

Consider `CN(C)C(=O)n1c(=O)n(C)c2cnc(CCc3cc(F)cc(F)c3)nc21` [compound 528], for which the IC50 amounted to 55 nM. Further, the “FAAH Inhibition, Inhibition Rate at 100 nM” value (100 nM test substance, 0.1 µM) is listed as 72%.

For `CN(C)C(=O)n1c(=O)n(C)c2cnc(CCc3ccc(OC4CCC4)cc3)nc21` [compound 531], the IC50 came to 30 nM. Further, the inhibition at 0.1 µM (100 nM test substance) came to 80%.

Consider `CN(C)C(=O)n1c(=O)n(C)c2cnc(CCc3ccc(OC4CCCC4)cc3)nc21` [compound 532], for which the IC50 amounted to 13 nM. For the same compound, the inhibition at 0.1 µM (100 nM test substance) stood at 96%.

With `CCOc1cccc(CCc2ncc3c(n2)n(C(=O)N(C)C)c(=O)n3C)c1` [compound 534], the IC50 came out at 131 nM. The inhibition at 0.1 µM (100 nM test substance) turned out to be 47%.

In the case of `CCCOc1cccc(CCc2ncc3c(n2)n(C(=O)N(C)C)c(=O)n3C)c1` [compound 535], the IC50 was determined as 75 nM. For the same compound, the inhibition at 0.1 µM (100 nM test substance) came to 61%.

Take `CC(C)Oc1cccc(CCc2ncc3c(n2)n(C(=O)N(C)C)c(=O)n3C)c1` [compound 536]: the IC50 was 131 nM. Besides, for the setting “100 nM test substance”, the inhibition at 0.1 µM is 41%.

For `CN(C)C(=O)n1c(=O)n(C)c2cnc(CCc3cccc(C(F)F)c3)nc21` [compound 537], the IC50 stood at 153 nM. In addition, the inhibition at 0.1 µM (100 nM test substance) is 41%.

As to `CN(C)C(=O)n1c(=O)n(C)c2cnc(CCc3cccc(C(F)(F)F)c3)nc21` [compound 539], the IC50 was 17 nM. Further, where the note is “100 nM test substance”, the inhibition at 0.1 µM turned out to be 92%.

As to `CN(C)C(=O)n1c(=O)n(C)c2cnc(CCc3ccccc3C(F)(F)F)nc21` [compound 542], the IC50 is 10 nM. Also, for the setting “100 nM test substance”, the inhibition at 0.1 µM amounted to 100%.

In the case of `COc1cccc(CCc2ncc3c(n2)n(C(=O)N(C)C)c(=O)n3C)c1` [compound 543], the IC50 was found to be 67 nM. Further, the inhibition at 0.1 µM (100 nM test substance) was 70%.

For the compound `COc1ccc(CCc2ncc3c(n2)n(C(=O)N(C)C)c(=O)n3C)cc1` [compound 544], the IC50 came to 11 nM. Besides, the inhibition at 0.1 µM (100 nM test substance) came to 122%.

In the case of `CN(C)C(=O)n1c(=O)n(C)c2cnc(CCc3ccccc3C(F)F)nc21` [compound 546], the IC50 stood at 28 nM. The inhibition at 0.1 µM (100 nM test substance) worked out at 86%.

For the compound `CN(C)C(=O)n1c(=O)n(C)c2cnc(CCc3cccc(OC(F)F)c3)nc21` [compound 548], the IC50 turned out to be 27 nM. Further, the inhibition at 0.1 µM (100 nM test substance) came to 79%.

For the compound `CN(C)C(=O)n1c(=O)n(C)c2cnc(CCc3ccccc3OC(F)(F)F)nc21` [compound 549], the IC50 is 22 nM. Besides, where the note is “100 nM test substance”, the inhibition at 0.1 µM amounted to 77%.

For the compound `CN(C)C(=O)n1c(=O)n(C)c2cnc(CCc3cccc(F)c3F)nc21` [compound 550], the IC50 turned out to be 20 nM. Also, for the setting “100 nM test substance”, the inhibition at 0.1 µM was 87%.

Regarding `CN(C)C(=O)n1c(=O)n(C)c2cnc(CCc3c(F)cccc3F)nc21` [compound 551], the IC50 amounted to 104 nM. Also, the inhibition at 0.1 µM (100 nM test substance) is 40%.

`CCN(C)C(=O)n1c(=O)n(C)c2cnc(CCc3ccccc3F)nc21` [compound 554]: under “100 nM test substance”, the inhibition at 0.1 µM was found to be 43%.

As to `CCN(C)C(=O)n1c(=O)n(C)c2cnc(CCc3ccc(F)cc3)nc21` [compound 555], the IC50 came out at 106 nM. Moreover, the inhibition at 0.1 µM (100 nM test substance) was determined as 48%.

Take `CCN(C)C(=O)n1c(=O)n(C)c2cnc(CCc3cccc(C)c3)nc21` [compound 556]: the IC50 is 44 nM. Moreover, where the note is “100 nM test substance”, the inhibition at 0.1 µM was found to be 78%.
